Experiments:
[1] = Compatibility of acetic acid sources with the gelatin and plasticizer matrix; format: physicochemical; settings: acetic acid source tested individually
Protocol: Various sources of acetic acid were tested in the laboratory to determine their compatibility with the gelatin and plasticizer matrix.

[2] = in softgel liquid fill materials
Text: The Bragg brand of apple cider vinegar hardshell capsules include sodium diacetate.

In the case of CC(=O)O.CC(=O)[O-].[Na+] [Sodium diacetate], the “compatibility with the gelatin and plasticizer matrix (reaction observed)” value (shortened to “compatibility”) [1] was “corroding a hole in the gelatin and causing leakage of the fill material” and the “effect on softgel shell” value [2] was “causes holes to form in the softgel shell”.

With CC(=O)[O-].CC(=O)[O-].[Zn+2] [Zinc acetate] the “compatibility” value [1] was “least reaction”.

In the case of CC(=O)[O-].CC(=O)[O-].[Ca+2] [Calcium acetate], the “compatibility” value [1] was “partially gelled up and liquified”.

For CC(=O)O.NCCCC[C@H](N)C(=O)O [Lysine acetate powder, Lysine acetate], the “compatibility” value [1] was “completely liquefied”.

Reference: US20250248944A1, “SOFTGEL CAPSULES HAVING A FILL COMPOSITION COMPRISING APPLE CIDER VINEGAR” (CAPTEK SOFTGEL INTERNATIONAL, INC., priority 2024, published 2025)
